Source: PubChem BioAssay AID248 (DTP/NCI, 2004)
Values joined by “and” are separate entries in the source; they are usually repeats but may differ in a detail not shown here. Identical values can stand only once. Inconclusive results and toxic doses are left out. Cut-off read from the data, not from the text of the source: active = T/C of 150% or more; inactive = T/C below 125%.

System: L1210 leukemia ip in BDF1 mice, survival T/C
Test: NCI In Vivo Anticancer Drug Screen. Data for tumor model L1210 Leukemia (intraperitoneal) in B6D2F1 (BDF1) mice
Conditions: endpoint: mean survival time, higher = longer survival
Summary of the method: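 Tumor cells were implanted, animals were treated, and survival was followed. The result divides the treated measurement by the vehicle-control measurement.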

[1] = dose: 200.0 mg/kg/injection, schedule: Q01DX009 (ip), vehicle: Klucel (hydroxypropylcellulose) (HPC)
[2] = dose: 400.0 mg/kg/injection, schedule: Q01DX009 (ip), vehicle: Klucel (hydroxypropylcellulose) (HPC)
[3] = dose: 100.0 mg/kg/injection, schedule: Q01DX009 (ip), vehicle: saline with Tween-80
[4] = dose: 200.0 mg/kg/injection, schedule: Q01DX009 (ip), vehicle: saline with Tween-80
[5] = dose: 400.0 mg/kg/injection, schedule: Q01DX009 (ip), vehicle: saline with Tween-80
[6] = dose: 12.5 mg/kg/injection, schedule: Q01DX009 (ip), vehicle: saline
[7] = dose: 25.0 mg/kg/injection, schedule: Q01DX009 (ip), vehicle: saline
[8] = dose: 50.0 mg/kg/injection, schedule: Q01DX009 (ip), vehicle: saline
[9] = dose: 100.0 mg/kg/injection, schedule: Q04DX003 (ip), vehicle: saline with Tween-80
[10] = dose: 200.0 mg/kg/injection, schedule: Q04DX003 (ip), vehicle: saline with Tween-80
[11] = dose: 400.0 mg/kg/injection, schedule: Q04DX003 (ip), vehicle: saline with Tween-80
[12] = dose: 50.0 mg/kg/injection, schedule: Q01DX009 (ip), vehicle: saline with Tween-80
[13] = dose: 100.0 mg/kg/injection, schedule: Q01DX001 (ip), vehicle: saline with Tween-80
[14] = dose: 100.0 mg/kg/injection, schedule: Q04DX002 (ip), vehicle: saline with Tween-80
[15] = dose: 200.0 mg/kg/injection, schedule: Q01DX001 (ip), vehicle: saline with Tween-80
[16] = dose: 200.0 mg/kg/injection, schedule: Q04DX002 (ip), vehicle: saline with Tween-80
[17] = dose: 100.0 mg/kg/injection, schedule: Q01DX009 (ip), vehicle: Klucel (hydroxypropylcellulose) (HPC)
[18] = dose: 100.0 mg/kg/injection, schedule: Q04DX003 (ip), vehicle: Klucel (hydroxypropylcellulose) (HPC)
[19] = dose: 200.0 mg/kg/injection, schedule: Q04DX003 (ip), vehicle: Klucel (hydroxypropylcellulose) (HPC)
[20] = dose: 400.0 mg/kg/injection, schedule: Q04DX003 (ip), vehicle: Klucel (hydroxypropylcellulose) (HPC)
[21] = dose: 100.0 mg/kg/injection, schedule: Q01DX001 (ip), vehicle: carboxymethylcellulose (CMC)
[22] = dose: 200.0 mg/kg/injection, schedule: Q01DX001 (ip), vehicle: carboxymethylcellulose (CMC)
[23] = dose: 400.0 mg/kg/injection, schedule: Q01DX001 (ip), vehicle: carboxymethylcellulose (CMC)

Measured: T/C

COc1cc(C(=O)N2CC2)cc(OC)c1OC
inactive: dose: 25.0 mg/kg/injection, schedule: Q01DX009 (ip), vehicle: water 96 % of control | dose: 50.0 mg/kg/injection, schedule: Q01DX009 (ip), vehicle: water 96 % of control

CC(C)(CCCOc1ccccc1)NC(=O)c1ccccc1
inactive: dose: 50.0 mg/kg/injection, schedule: Q01DX001 (ip), vehicle: saline 100 % of control | dose: 100.0 mg/kg/injection, schedule: Q01DX001 (ip), vehicle: saline 100 % of control | dose: 200.0 mg/kg/injection, schedule: Q01DX001 (ip), vehicle: saline 103 % of control | dose: 400.0 mg/kg/injection, schedule: Q01DX001 (ip), vehicle: saline 102 % of control

CC(=O)c1ccccc1Br
inactive: [1] 100 % of control | [2] 97 % of control

CCOC(=O)CNC(=O)OCCOc1ccccc1Cl
inactive: [3] 94 % of control | [4] 98 % of control | [5] 100 % of control

CC(CCN1CCOCC1)(CN=C(N)N)c1cccc2ccccc12 (stereo not drawn)
inactive: [6] 111 % of control | [7] 97 % of control | dose: 25.0 mg/kg/injection, schedule: Q04DX002 (ip), vehicle: saline 93 % of control | [8] 100 % of control

O=[N+]([O-])c1ccc(OCCNS(=O)(=O)c2cccc(S(=O)(=O)F)c2)c(Cl)c1
inactive: [3] 104 % of control | [9] 97 % of control | [4] 88 % of control | [10] 95 % of control | [5] 90 % of control | [11] 101 % of control

CC(C)COC(CN)C(Cl)(Cl)Cl (stereo not drawn)
inactive: dose: 50.0 mg/kg/injection, schedule: Q01DX001 (ip), vehicle: saline with Tween-80 104 % of control | [12] 94 % of control and 110 % of control | dose: 50.0 mg/kg/injection, schedule: Q04DX003 (ip), vehicle: saline with Tween-80 100 % of control | [13] 103 % of control | [3] 97 % of control and 92 % of control | [14] 103 % of control and 104 % of control | [9] 95 % of control | [15] 97 % of control | [4] 93 % of control and 99 % of control | [16] 95 % of control and 101 % of control | [10] 92 % of control

CC(C)CC(C)NCCOC(=O)c1ccc(N)cc1 (stereo not drawn)
inactive: dose: 9.38 mg/kg/injection, schedule: Q01DX001 (ip), vehicle: other 104 % of control | dose: 18.75 mg/kg/injection, schedule: Q01DX001 (ip), vehicle: other 96 % of control | dose: 37.5 mg/kg/injection, schedule: Q01DX001 (ip), vehicle: other 106 % of control | dose: 75.0 mg/kg/injection, schedule: Q01DX001 (ip), vehicle: carboxymethylcellulose (CMC) 96 % of control

c1cc2cc3c(cc2c2c1CC1c4cc5c(cc4CCN1C2)OCO5)OCO3 (stereo not drawn)
inactive: [17] 103 % of control | [18] 101 % of control | [1] 97 % of control | [19] 97 % of control | [2] 97 % of control | [20] 94 % of control

O=C(O)CSCc1ccccc1
inactive: dose: 25.0 mg/kg/injection, schedule: Q01DX009 (ip), vehicle: saline with Tween-80 102 % of control | [12] 95 % of control | [3] 100 % of control and 102 % of control | [18] 94 % of control | [19] 100 % of control | [20] 102 % of control

Cc1ccccc1-n1c(C)nc2ccccc2c1=O
inactive: dose: 75.0 mg/kg/injection, schedule: Q01DX001 (ip), vehicle: saline 102 % of control | dose: 100.0 mg/kg/injection, schedule: Q01DX001 (ip), vehicle: other 94 % of control | [17] 97 % of control | [18] 101 % of control | dose: 150.0 mg/kg/injection, schedule: Q01DX001 (ip), vehicle: saline 106 % of control | dose: 200.0 mg/kg/injection, schedule: Q01DX001 (ip), vehicle: other 100 % of control | [1] 105 % of control | [19] 105 % of control | dose: 300.0 mg/kg/injection, schedule: Q01DX001 (ip), vehicle: saline 107 % of control | dose: 400.0 mg/kg/injection, schedule: Q01DX001 (ip), vehicle: other 96 % of control | [20] 111 % of control

CCN1N=Nc2cccc3cccc1c23
inactive: dose: 100.0 mg/kg/injection, schedule: Q04DX003 (ip), vehicle: acetone 99 % of control | dose: 200.0 mg/kg/injection, schedule: Q04DX003 (ip), vehicle: acetone 100 % of control

CNCC(C)(C)c1ccccc1
inactive: dose: 6.25 mg/kg/injection, schedule: Q01DX009 (ip), vehicle: saline 101 % of control | [6] 101 % of control | [7] 102 % of control | dose: 25.0 mg/kg/injection, schedule: Q04DX003 (ip), vehicle: saline 104 % of control | [8] 107 % of control | dose: 50.0 mg/kg/injection, schedule: Q04DX003 (ip), vehicle: saline 104 % of control | dose: 100.0 mg/kg/injection, schedule: Q01DX009 (ip), vehicle: saline 104 % of control | dose: 100.0 mg/kg/injection, schedule: Q04DX003 (ip), vehicle: saline 106 % of control

CCC(=O)NC1Cc2cc(C)cc(C)c21 (stereo not drawn)
inactive: dose: 25.0 mg/kg/injection, schedule: Q04DX002 (ip), vehicle: Klucel (hydroxypropylcellulose) (HPC) 113 % of control | dose: 50.0 mg/kg/injection, schedule: Q04DX002 (ip), vehicle: Klucel (hydroxypropylcellulose) (HPC) 92 % of control | dose: 100.0 mg/kg/injection, schedule: Q04DX002 (ip), vehicle: Klucel (hydroxypropylcellulose) (HPC) 100 % of control

N#Cc1ccc(OCCCOc2ccccc2)cc1
inactive: [13] 100 % of control | [15] 102 % of control | dose: 400.0 mg/kg/injection, schedule: Q01DX001 (ip), vehicle: saline with Tween-80 93 % of control

Cc1ccc(NC(=O)Nc2cccc(Cl)c2C)cc1NC(=O)Nc1cccc(Cl)c1C
inactive: [3] 87 % of control | [9] 90 % of control | [4] 87 % of control | [10] 91 % of control | [5] 86 % of control | [11] 91 % of control

C#CC(OC(=O)NC(C(=O)OC)C(C)C)(c1ccccc1)c1ccccc1 (stereo not drawn)
inactive: dose: 50.0 mg/kg/injection, schedule: Q04DX002 (ip), vehicle: saline with Tween-80 100 % of control | [14] 105 % of control and 114 % of control | [16] 122 % of control

CC(C)CC(C)OC(C[N+](=O)[O-])C(Cl)(Cl)Cl (stereo not drawn)
inactive: [3] 93 % of control | [9] 106 % of control | [10] 104 % of control | [5] 93 % of control | [11] 98 % of control

CCOP(=O)(CCO)OCC
inactive: dose: 50.0 mg/kg/injection, schedule: Q01DX005 (ip), vehicle: saline 106 % of control | dose: 100.0 mg/kg/injection, schedule: Q01DX005 (ip), vehicle: saline 106 % of control | dose: 200.0 mg/kg/injection, schedule: Q01DX005 (ip), vehicle: saline 95 % of control | dose: 400.0 mg/kg/injection, schedule: Q01DX005 (ip), vehicle: saline 104 % of control

O=C1c2cc(Br)cc(Br)c2NCCC1(Br)Br
inactive: [21] 91 % of control | [22] 91 % of control | [23] 94 % of control

O=C(O)COC(C[N+](=O)[O-])C(Cl)(Cl)Cl (stereo not drawn)
inactive: [3] 95 % of control | [4] 92 % of control | [5] 88 % of control

CCOP(=O)(OCC)OC(C)CC (stereo not drawn)
inactive: [14] 109 % of control | [16] 103 % of control | dose: 400.0 mg/kg/injection, schedule: Q04DX002 (ip), vehicle: saline with Tween-80 106 % of control

O=C1OC2(CCN(Cc3ccccc3)CC2)C(=O)N1c1cccc(Cl)c1
inactive: [21] 92 % of control | [22] 106 % of control | [23] 97 % of control

COc1cc(/C=C/[N+](=O)[O-])ccc1O
inactive: dose: 25.0 mg/kg/injection, schedule: Q01DX009 (ip), vehicle: Klucel (hydroxypropylcellulose) (HPC) 98 % of control | dose: 50.0 mg/kg/injection, schedule: Q01DX009 (ip), vehicle: Klucel (hydroxypropylcellulose) (HPC) 98 % of control | [17] 102 % of control and 103 % of control
